Assays:
[1] = molecular target: T1, 5-hydroxytryptamine receptor 2C (Homo sapiens, UniProt P28335); experiment: Binding affinity for human cloned 5-hydroxytryptamine 2C receptor expressed in CHO cells using [3H]mesulergine as radioligand; format: cell-based
T1 sequence (P28335 whole entry): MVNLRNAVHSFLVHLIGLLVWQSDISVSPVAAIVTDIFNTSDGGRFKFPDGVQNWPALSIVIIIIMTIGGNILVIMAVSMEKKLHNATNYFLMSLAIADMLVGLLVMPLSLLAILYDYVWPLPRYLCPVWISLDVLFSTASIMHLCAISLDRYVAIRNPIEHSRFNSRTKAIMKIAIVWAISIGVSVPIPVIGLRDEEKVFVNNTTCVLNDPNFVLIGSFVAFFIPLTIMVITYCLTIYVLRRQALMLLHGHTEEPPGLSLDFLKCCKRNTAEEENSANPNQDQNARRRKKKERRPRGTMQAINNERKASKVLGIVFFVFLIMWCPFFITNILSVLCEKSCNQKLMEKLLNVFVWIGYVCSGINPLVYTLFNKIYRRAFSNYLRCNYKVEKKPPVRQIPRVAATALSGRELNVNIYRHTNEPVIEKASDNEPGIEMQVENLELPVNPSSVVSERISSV

[2] = molecular target: 5-hydroxytryptamine receptor 2A (Homo sapiens, UniProt P28223); experiment: biochemical; format: cell-based, L929
Description: Binding affinity for human cloned 5-hydroxytryptamine 2A receptor expressed in L929 cells using [125I]R91150 as radioligand

[3] = molecular target: T2, 5-hydroxytryptamine receptor 2C (Rattus norvegicus) (UniProt P08909); experiment: In vivo activity in rat mCPP challenge test following p.o. administration.; format: functional, organism-based
T2 sequence (whole entry): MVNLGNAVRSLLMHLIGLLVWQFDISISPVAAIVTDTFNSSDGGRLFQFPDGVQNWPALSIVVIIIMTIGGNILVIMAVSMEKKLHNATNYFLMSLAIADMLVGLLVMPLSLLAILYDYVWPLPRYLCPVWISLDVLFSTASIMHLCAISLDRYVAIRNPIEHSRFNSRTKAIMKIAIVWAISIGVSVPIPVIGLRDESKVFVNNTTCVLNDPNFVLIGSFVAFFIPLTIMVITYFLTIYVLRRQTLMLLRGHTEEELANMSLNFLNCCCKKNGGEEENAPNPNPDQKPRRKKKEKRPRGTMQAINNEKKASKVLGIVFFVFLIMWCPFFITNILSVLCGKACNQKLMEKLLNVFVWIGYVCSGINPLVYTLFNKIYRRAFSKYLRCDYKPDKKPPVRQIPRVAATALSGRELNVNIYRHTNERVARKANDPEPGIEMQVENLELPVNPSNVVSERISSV

Histamine H1 receptor = Histamine H1 receptor (Homo sapiens, UniProt P35367); experiment: Binding affinity for human cloned Histamine H1 receptor expressed in CHO cells using [3H]pyrilamine as radioligand; format: cell-based
Rattus norvegicus = experiment: In vivo activity in mCPP challenge test were performed in male Wistar rats by subcutaneous administration; format: functional
[4] = molecular target: T3, 5-hydroxytryptamine receptor 1A (Homo sapiens, UniProt P08908); experiment: Binding affinity for human cloned 5-hydroxytryptamine 1A receptor
T3 sequence (P08908 whole entry): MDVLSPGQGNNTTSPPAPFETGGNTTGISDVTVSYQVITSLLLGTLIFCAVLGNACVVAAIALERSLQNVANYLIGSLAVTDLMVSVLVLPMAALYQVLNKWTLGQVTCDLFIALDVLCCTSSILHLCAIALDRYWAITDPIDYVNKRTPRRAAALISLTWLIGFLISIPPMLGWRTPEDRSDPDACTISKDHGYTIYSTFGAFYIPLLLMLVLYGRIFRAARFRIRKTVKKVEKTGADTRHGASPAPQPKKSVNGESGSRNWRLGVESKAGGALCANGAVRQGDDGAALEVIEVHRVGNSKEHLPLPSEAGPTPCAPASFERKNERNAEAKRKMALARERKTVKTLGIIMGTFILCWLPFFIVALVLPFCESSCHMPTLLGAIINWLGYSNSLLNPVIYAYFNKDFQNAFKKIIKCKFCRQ

[5] = molecular target: 5-hydroxytryptamine receptor 1D (Homo sapiens, UniProt P28221); experiment: Binding affinity for human cloned 5-hydroxytryptamine 1D receptor
[6] = molecular target: Serotonin 3 (5-HT3) receptor; experiment: Binding affinity for human cloned 5-hydroxytryptamine 3 receptor; format: protein-complex assay
[7] = molecular target: T4, Alpha-2A adrenergic receptor (Homo sapiens, UniProt P08913); experiment: Binding affinity for human cloned Alpha-2A adrenergic receptor
T4 sequence (P08913 whole entry): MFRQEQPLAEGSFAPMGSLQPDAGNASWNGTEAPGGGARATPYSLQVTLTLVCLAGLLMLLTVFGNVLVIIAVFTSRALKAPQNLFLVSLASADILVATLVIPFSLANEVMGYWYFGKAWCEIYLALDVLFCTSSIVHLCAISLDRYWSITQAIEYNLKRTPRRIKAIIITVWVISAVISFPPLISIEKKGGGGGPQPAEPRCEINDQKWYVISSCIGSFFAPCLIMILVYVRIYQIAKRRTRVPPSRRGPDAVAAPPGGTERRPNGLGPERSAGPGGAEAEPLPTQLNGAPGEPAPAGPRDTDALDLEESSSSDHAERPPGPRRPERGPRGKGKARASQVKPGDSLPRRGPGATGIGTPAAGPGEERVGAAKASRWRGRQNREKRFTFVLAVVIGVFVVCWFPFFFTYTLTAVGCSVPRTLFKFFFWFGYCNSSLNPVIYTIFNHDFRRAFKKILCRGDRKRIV

[8] = molecular target: T5, Alpha-1A adrenergic receptor (Homo sapiens, UniProt P35348); experiment: Binding affinity for human cloned Alpha-1A adrenergic receptor
T5 sequence (P35348 whole entry): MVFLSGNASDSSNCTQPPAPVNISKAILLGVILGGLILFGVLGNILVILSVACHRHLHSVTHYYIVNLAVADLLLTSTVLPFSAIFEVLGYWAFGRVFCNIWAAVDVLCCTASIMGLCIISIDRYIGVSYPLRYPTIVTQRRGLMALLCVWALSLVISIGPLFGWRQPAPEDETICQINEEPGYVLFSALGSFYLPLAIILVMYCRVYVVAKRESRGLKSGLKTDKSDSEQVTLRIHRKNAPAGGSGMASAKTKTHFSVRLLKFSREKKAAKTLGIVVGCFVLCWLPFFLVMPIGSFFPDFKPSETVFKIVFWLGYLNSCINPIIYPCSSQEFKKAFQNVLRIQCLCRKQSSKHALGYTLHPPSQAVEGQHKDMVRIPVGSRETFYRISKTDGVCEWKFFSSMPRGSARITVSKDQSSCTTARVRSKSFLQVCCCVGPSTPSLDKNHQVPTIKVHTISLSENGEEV

[9] = molecular target: T6, Alpha-2C adrenergic receptor (Homo sapiens, UniProt P18825); experiment: Binding affinity for human cloned Alpha-2C adrenergic receptor
T6 sequence (P18825 whole entry): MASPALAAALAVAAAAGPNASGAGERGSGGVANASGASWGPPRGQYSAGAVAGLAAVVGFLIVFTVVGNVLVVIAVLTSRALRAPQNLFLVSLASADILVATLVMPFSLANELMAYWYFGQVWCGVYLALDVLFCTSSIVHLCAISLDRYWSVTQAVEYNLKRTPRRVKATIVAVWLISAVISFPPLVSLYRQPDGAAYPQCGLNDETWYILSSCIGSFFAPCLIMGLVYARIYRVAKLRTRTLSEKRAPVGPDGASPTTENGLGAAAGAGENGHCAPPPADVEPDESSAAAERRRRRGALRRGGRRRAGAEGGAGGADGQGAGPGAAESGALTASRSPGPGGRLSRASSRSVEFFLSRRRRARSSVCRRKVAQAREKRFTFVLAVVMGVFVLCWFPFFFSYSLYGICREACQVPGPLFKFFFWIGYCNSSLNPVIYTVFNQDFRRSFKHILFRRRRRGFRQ

D(2) dopamine receptor [10] = molecular target: D(2) dopamine receptor (Rattus norvegicus, UniProt P61169); experiment: Binding affinity for rat Dopamine receptor D2
D(3) dopamine receptor = D(3) dopamine receptor (Homo sapiens, UniProt P35462); experiment: Binding affinity for human cloned Dopamine receptor D3
D(2) dopamine receptor [11] = molecular target: D(2) dopamine receptor (Homo sapiens, UniProt P14416); experiment: Binding affinity for human cloned Dopamine receptor D2L
D(4) dopamine receptor = molecular target: T7, D(4) dopamine receptor (Homo sapiens, UniProt P21917); experiment: Binding affinity for human cloned Dopamine receptor D4
T7 sequence (P21917 whole entry): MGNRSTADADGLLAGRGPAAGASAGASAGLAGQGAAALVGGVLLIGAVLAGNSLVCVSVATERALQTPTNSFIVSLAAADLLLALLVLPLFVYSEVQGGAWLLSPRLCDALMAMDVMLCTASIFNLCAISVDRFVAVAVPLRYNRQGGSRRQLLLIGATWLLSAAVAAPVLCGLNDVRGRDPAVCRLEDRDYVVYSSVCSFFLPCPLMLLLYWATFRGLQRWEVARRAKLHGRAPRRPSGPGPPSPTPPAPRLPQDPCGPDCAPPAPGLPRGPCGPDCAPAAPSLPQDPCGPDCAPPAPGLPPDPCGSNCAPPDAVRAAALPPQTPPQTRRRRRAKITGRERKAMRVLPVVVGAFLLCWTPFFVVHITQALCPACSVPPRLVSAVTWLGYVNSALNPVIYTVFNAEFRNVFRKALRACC

[12] = Rattus norvegicus, sc, read-out: ED50

Chain of Histamine H1 receptor (P35367 whole entry): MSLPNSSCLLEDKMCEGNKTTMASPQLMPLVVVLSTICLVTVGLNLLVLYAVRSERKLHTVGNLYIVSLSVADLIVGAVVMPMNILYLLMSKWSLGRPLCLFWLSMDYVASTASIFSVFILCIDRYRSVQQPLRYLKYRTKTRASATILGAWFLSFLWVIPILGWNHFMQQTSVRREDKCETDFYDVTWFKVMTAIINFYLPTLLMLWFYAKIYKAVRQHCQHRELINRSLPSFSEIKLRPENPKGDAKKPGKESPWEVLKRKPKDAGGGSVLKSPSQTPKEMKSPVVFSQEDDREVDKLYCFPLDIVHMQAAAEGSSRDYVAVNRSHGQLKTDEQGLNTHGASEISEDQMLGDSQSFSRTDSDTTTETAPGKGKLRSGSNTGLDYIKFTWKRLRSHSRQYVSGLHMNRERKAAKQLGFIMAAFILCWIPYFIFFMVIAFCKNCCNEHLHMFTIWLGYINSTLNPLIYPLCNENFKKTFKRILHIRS
Chain of 5-hydroxytryptamine receptor 2A (P28223 whole entry): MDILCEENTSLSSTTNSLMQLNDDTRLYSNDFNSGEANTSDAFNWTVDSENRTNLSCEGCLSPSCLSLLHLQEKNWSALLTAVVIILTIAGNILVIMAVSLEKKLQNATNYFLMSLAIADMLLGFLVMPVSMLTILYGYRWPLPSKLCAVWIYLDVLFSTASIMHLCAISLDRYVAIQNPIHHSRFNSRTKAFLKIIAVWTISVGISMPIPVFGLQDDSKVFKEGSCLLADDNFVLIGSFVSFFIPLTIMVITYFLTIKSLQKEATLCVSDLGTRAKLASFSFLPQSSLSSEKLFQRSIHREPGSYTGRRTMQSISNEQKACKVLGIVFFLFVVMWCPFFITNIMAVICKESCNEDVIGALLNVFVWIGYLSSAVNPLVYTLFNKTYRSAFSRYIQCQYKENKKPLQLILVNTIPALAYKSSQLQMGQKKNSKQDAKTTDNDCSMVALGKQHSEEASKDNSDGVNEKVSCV
Chain of D(2) dopamine receptor (Rattus norvegicus, UniProt P61169) (P61169 whole entry): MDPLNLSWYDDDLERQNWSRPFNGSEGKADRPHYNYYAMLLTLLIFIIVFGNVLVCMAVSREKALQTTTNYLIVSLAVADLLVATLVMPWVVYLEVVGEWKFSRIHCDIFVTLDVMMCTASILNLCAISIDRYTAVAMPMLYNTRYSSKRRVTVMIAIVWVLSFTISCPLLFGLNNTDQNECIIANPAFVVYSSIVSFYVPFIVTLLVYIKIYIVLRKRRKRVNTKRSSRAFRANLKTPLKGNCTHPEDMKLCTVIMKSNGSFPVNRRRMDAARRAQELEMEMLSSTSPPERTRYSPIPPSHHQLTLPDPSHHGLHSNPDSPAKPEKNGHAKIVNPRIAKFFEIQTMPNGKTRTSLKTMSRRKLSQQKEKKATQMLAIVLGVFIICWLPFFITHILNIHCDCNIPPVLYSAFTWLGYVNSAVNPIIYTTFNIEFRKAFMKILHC
Chain of D(2) dopamine receptor (Homo sapiens, UniProt P14416) (P14416 whole entry): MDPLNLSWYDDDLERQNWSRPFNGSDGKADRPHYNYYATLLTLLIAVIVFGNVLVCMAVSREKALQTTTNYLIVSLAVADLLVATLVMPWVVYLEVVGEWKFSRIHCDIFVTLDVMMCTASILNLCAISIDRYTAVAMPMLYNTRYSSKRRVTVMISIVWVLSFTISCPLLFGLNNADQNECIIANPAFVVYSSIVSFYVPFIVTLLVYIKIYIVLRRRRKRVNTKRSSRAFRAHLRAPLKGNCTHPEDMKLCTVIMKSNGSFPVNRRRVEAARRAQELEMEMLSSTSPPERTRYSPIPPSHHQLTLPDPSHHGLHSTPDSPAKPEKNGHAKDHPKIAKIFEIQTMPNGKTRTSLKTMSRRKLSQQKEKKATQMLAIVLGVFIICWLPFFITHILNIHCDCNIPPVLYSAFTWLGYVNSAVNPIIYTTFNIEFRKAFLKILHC
Chain of 5-hydroxytryptamine receptor 1D (P28221 whole entry): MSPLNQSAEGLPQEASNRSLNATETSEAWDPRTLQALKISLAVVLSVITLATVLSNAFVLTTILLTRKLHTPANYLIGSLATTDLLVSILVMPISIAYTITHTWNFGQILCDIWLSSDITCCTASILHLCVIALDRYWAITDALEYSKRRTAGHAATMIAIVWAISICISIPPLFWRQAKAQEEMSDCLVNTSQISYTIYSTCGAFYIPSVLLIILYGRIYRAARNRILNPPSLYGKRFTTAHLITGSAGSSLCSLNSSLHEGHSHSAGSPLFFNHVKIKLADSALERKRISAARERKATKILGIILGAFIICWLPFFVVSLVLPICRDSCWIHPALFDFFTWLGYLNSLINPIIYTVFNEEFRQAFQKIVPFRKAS
Chain of D(3) dopamine receptor (P35462 whole entry): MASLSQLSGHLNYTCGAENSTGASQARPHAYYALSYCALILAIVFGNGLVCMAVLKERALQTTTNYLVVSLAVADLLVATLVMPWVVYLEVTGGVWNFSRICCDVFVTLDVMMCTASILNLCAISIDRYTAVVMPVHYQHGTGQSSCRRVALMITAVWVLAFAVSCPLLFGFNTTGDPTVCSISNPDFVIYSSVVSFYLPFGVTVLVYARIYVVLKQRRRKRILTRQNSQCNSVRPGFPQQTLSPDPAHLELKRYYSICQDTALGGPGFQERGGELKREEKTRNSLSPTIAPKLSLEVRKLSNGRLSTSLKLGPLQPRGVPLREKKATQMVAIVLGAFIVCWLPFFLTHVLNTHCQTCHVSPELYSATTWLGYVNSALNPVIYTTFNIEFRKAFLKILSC

Row | SMILES | IC50 [1] [µM] | IC50 [2] [µM] | ED50 [3] [mg/kg] | IC50 (Histamine H1 receptor) [µM] | ED50 (Rattus norvegicus; [12]) [mg/kg] | further results
1 | CN1CCN(CC2CC3c4ccccc4Cc4ccccc4N3O2)CC1 (configuration not stated) | > 1 | 0.282 | > 2.5 | – | > 2.5 | –
2 | CN(C)CC1(C)CC2c3ccccc3Cc3ccccc3N2O1 (stereo in doubt; trans) [listing 1 of 2 here] | – | – | > 2.5 | – | – | –
3 | c1ccc2c(c1)CN(CC1CC3c4ccccc4Cc4ccccc4N3O1)C2 (configuration not stated) | > 1 | > 1 | > 2.5 | > 1 | – | –
4 | CN(C)C(=O)C1CC2c3ccccc3Cc3ccccc3N2O1 (configuration not stated) | > 1 | > 1 | > 2.5 | > 1 | – | –
5 | CN(C)CC1CC2c3ccccc3Oc3ccc(Cl)cc3N2O1 (configuration not stated) | 0.0038 | 0.00191 | > 2.5 | 0.102 | > 2.5 | –
6 | c1ccc2c(c1)Cc1ccccc1N1OC(CN3CCNCC3)CC21 (configuration not stated) | > 1 | > 1 | > 2.5 | > 1 | – | –
7 | CN(C)CC1(C)CC2c3ccccc3Cc3ccccc3N2O1 (stereo in doubt; trans) [listing 2 of 2 here] | 0.933 | > 1 | – | 0.0617 | > 2.5 | –

Continued, in another order:

Row | IC50 [1] [µM] | IC50 [2] [µM] | ED50 [3] [mg/kg] | IC50 (Histamine H1 receptor) [µM] | SMILES | ED50 (Rattus norvegicus; [12]) [mg/kg] | further results
8 | 0.692 | > 1 | > 2.5 | > 1 | CN(CC1CC2c3ccccc3Cc3ccccc3N2O1)C(=O)C(F)(F)F (configuration not stated) | – | –
9 | 0.0162 | 0.0251 | > 2.5 | 0.00302 | c1ccc2c(c1)Cc1ccccc1N1OC(CN3CCCC3)CC21 (configuration not stated) | > 2.5 | –
10 | 0.0123 | 0.0229 | – | 0.00676 | CN(C)CC1CC2c3ccccc3Cc3ccccc3N2O1 (stereo in doubt; 2a) | – | IC50 [4]: 0.977 µM; IC50 [5]: 0.661 µM; pIC50 [6]: 5.92; IC50 [7]: 0.372 µM; IC50 [8]: 0.537 µM; IC50 [9]: 1.86 µM; IC50 (D(2) dopamine receptor [10]): 0.195 µM; IC50 (D(3) dopamine receptor): 0.17 µM; ED50 (Rattus norvegicus): 0.04 mg/kg; IC50 (D(2) dopamine receptor [11]): 0.871 µM; IC50 (D(4) dopamine receptor): 0.132 µM
11 | > 1 | > 1 | – | > 1 | CN(C)CC1CC2c3ccccc3Cc3ccccc3N2O1 (trans isomer) | – | ED50 (Rattus norvegicus): >2.5 mg/kg
12 | 0.324 | > 1 | > 2.5 | 0.151 | CC(C)N(CC1CC2c3ccccc3Cc3ccccc3N2O1)C(C)C (configuration not stated) | – | –

— ChEMBL document CHEMBL1135380, “Synthesis and structure-activity relationship of 2-(aminoalkyl)-2,3,3a,8-tetrahydrodibenzo[c,f]isoxazolo[2,3-a]azepine derivatives: a novel series of 5-HT(2A/2C) receptor antagonists. Part 1” (Bioorg Med Chem Lett, 2002)
